According to patent EP4653017A1, “ANTIBODY-DRUG CONJUGATE AND USE THEREOF” (Tyligand Bioscience (Shanghai) Limited, priority 2023, dated 2024):
pEC50, pIC50: −log10 of the molar value. Where a name gives a salt, the structure may show the parent alone.

How the values were obtained:
[1] = tested on: human gastric cancer NCI-N87 cells; experiment: Inhibition of NCI-N87 cell proliferation (CTG assay); format: cell-based
Method: NCI-N87 cells (Cell Bank of Chinese Academy of Sciences, Cat. No. #TCHu130) were cultured at 37°C, 5% CO2, 95% humidity in RPMI 1640 + 10% FBS (ExCell Bio, Cat. No. #FND500), the cells in logarithmic growth phase were harvested and counted, and cell viability was measured using Countstar automated cell counter based on classical trypan blue staining principle to ensure that the cell viability was above 90%. The cell concentration was adjusted, 135 µL of cell suspension was added into 96 well clear flat bottom black wall plate (Corning, Cat. No. #3904), 2000/well, and the cells was incubated in 96 well plate at 37°C and 5% CO2.
The cells in the 96 well plates that had been dosed were incubated at 37°C, 5% CO2 for 5 days before performing CTG assay. the plate was equilibrated to room temperature for 30 min and CTG Reagent (CellTiter-Glo® Luminescent Cell Viability Assay (Promega, Cat. No. #G7573) was melt, 50 µL of CTG Solution was added to each well, and shaked on an orbital shaker for 2 min to lyse the cells. The plate was left at room temperature for 10 min to stabilize the cold light signal and the cold light value was read (EnVision® Multifunctional Plate Reader, PerkinElmer#2105). [formula]
GraphPad Prism software was used to analyze the data, and Dose-response-inhibition equation was used to fit the data to obtain the dose-response curve from which IC50 value was calculated. […]

[2] = tested on: CT26 cells; experiment: Inhibition of CT26 cell proliferation (CellTiter-Glo); format: cell-based, mouse
Method: CT26 cells are a mouse colorectal cancer cell line. In this experiment, CellTiter-Glo Luminescence Cell Viability Assay kit from Promega was used to assess the inhibitory activity of the compounds on CT26 cell proliferation.
When CT26 cells (ATCC #CRL-2638) were revived, the cryovial was rapid shaken in a 37°C water bath to thaw with 1 min. The thawed cell suspension was mixed well with DMEM medium (GE Company, Cat. No. #SH30243.01) containing 10% FBS (GIBCO, Cat. No. #10099-141), centrifuged at 1000 rpm for 5 min, and the supernatant was discarded. The cell pellet was resuspended in 5 mL of complete medium (DMEM medium containing 10% FBS), placed in a cell culture flask with a bottom area of 25 cm^2, and cultured in a cell incubator at 37°C, 5% CO2, and 95% humidity. Passage was performed when the confluence rate of cells reached 70%~80%. Referring to the cell passage method at plating, all cells in the flask were transferred to a 15 mL centrifuge tube, centrifuged at 1000 rpm for 5 minutes, and the supernatant was discarded. The cell pellet was resuspended in 5 mL of new complete medium, 1 mL was placed in a cell culture flask with a bottom area of 25 cm^2, and 4 mL of fresh complete medium was added to continue the culture. Plating was performed when the cell confluence rate of cells reached 70% to 80% again. Referring to the cell passage method at plating, 1/5 of the cell suspension was maintained and the remaining 4/5 of the cell suspension was placed in a 15 mL centrifuge tube. The cells were centrifuged, the old medium was discarded, the cells was washed once with DMEM medium (without serum), and centrifuged to remove the supernatant. Cells were resuspended with DMEM medium (without serum). […]. A cell suspension at a density of 1.1 x 10^4 viable cells/mL was prepared using DMEM medium (without serum) and 90 µL of the cell suspension was added to 96-well clear flat-bottom black-walled cell culture plate wells (Corning, Cat. No. #3603) to yield a cell density of 1000 viable cells/well in the plate. A control group without cells, without compounds, and with complete medium only (i.e., culture medium control) was set up, and a control group without compounds and with cells (i.e., cell control) was set up. The plates were incubated overnight in a cell incubator.
A DMSO stock solution of 10 mM compound was first serially diluted at a 3.16-fold dilution ratio with DMSO (Sigma, Cat. No. #D2650) to a ninth concentration and a tenth concentration of DMSO control without compound was set. DMSO solutions containing different concentrations of the compound were then diluted a 10-fold dilution ratio with PBS (Solarbio company, Cat. No. #P1020) to achieve a DMSO content of 10% in each concentration of the compound solution. Finally, 10 µL of the above solution was added to the corresponding cell culture plate to achieve a starting concentration of 100 µM compound, a 3.16-fold dilution ratio of adjacent concentrations, and a DMSO content of 1% in the cell culture plate. The plates were maintained in a cell incubator for an additional 120 hours.
After 120 hours, the CellTiter-Glo reagent (Promega, Cat. No. #G7572) was thawed and the plate was equilibrated at room temperature for 30 min. Then, 100 µL CellTiter-Glo was added to each well of the plate and shaken on an orbital shaker for 5 min to fully lyse the cells. The plate was placed at room temperature for 20 min to stabilize the cold light signal, and the cold light value of each well was scanned with a multifunctional microplate reader (Molecular Devices, Spectramax M3) at full wavelength.
The compound of the present invention and ADU-S100 (MCE, Cat. No. #HY12885A) were used as controls: Clofarabine (Wuhu Huaren Technology, Cat. No. #HR-00701002), Cladribine (CSNpharm, Cat. No. #CSN10004), Gemcitabine Hydrochloride (Shaoyuan, Cat. No. #SY014538), Gemcitabine Prodrug LY2334737 (home-made). […]

[3] = tested on: SK-MEL5; experiment: Inhibition of tumor cell line proliferation (Table 3), SK-MEL5; format: cell-based; conditions: SK-MEL-5; SK-MEL5, Human melanoma cells
[4] = tested on: THP-1 cells; experiment: Activation of IFN-β secretion by THP-1 cells (IFN-beta ELISA); format: cell-based, human
[5] = tested on: A375; experiment: Inhibition of tumor cell line proliferation (Table 3), A375; format: cell-based; conditions: A-375; A375, Human melanoma cells

**Q.** For `Nc1nc2c(ncn2[C@@H]2O[C@@H]3CO[P@@](=O)(S)O[C@H]4[C@H](F)[C@H](n5cnc6c(N)nc(Cl)nc65)O[C@@H]4CO[P@@](=O)(S)O[C@@H]2[C@@H]3O)c(=O)[nH]1` [CDN-3, (2',3')-cyclo-(Rp,Rp)-[2'-O-thiophosphodiester-guanosine]-[3'-O-thiophosphodiester-2-chloro-2'-deoxy-2'-fluoro-beta-adenosine]diammonium salt], which “inhibitory effects on NCI-N87 cell proliferation (in words)” value [1] is on record?
**A.** The value was “strong inhibitory effects”.

**Q.** And the pIC50 ([1]; Homo sapiens, 120 h, NCI-N87, 5 days incubation, top concentration 600 nM)?
**A.** The pIC50 was 6.68.

**Q.** And the pIC50 ([2]; Mus musculus, CT26, 120 h, read-out: CT-26 activity)?
**A.** Its pIC50 is > 6.00.

**Q.** And the “inhibitory ability on growth of CT26 tumor cells in vitro (in words)” value ([2]; superior to ADU-S100)?
**A.** Its value is “particularly significant inhibitory ability”.

**Q.** And the pIC50 [3]?
**A.** Its pIC50 is 6.30.

**Q.** And the “STING agonist activity (in words)” value ([4]; EC50 stronger than 2',3'-cGAMP, comparable to ADU-S100)?
**A.** The value was “significant STING agonist activity”.

**Q.** What about the pEC50 ([4]; Homo sapiens, THP-1, 24 h, read-out: THP-1 activity) of the same compound?
**A.** Its pEC50 is 5.00 to 6.00.

**Q.** And the pIC50 [5]?
**A.** Its pIC50 is 6.69.
